What was measured:
[1] = tested on: yellow nutsedge (Cyperus esculentus); assay: Herbicide effect by foliar spray on pot-grown yellow nutsedge in greenhouse (Test Example 1); assay type: in vivo; conditions: evaluated 25 days after treatment, level 0-10
Protocol: (§1) Evaluation of phytotoxicity against a crop was shown by “no” when almost no phytotoxicity was observed, “low” when a low level phytotoxicity was observed, “medium” when a medium level phytotoxicity was observed and “high” when a high level phytotoxicity was observed.
(§2) A plastic pot of 11 cm in diameter and 8 cm in depth was filled with field soil. A tuber of yellow nutsedge (Cyperus esculentus) was planted and grown in a greenhouse for 21 days.
(§3) An emulsion of Compound A-1 was prepared by sufficiently mixing 5 parts of Compound A-1, 6 parts of Sorpol 3005×(surfactant, produced by Toho Chemical) and 89 parts of xylene.
(§4) Each of single use of an emulsion of Compound A-1, single use of an formulation of Chlorimuron-ethyl (commercial name: Classic, produced by Du Pont, containing 25% of Chlorimuron-ethyl), and a mixed composition of an emulsion of Compound A-1 and an formulation of Chlorimuron-ethyl, were diluted with water containing 1% Agri-dex (produced by Helena). Respective dilutions were uniformly sprayed from upper side onto foliages of yellow nutsedge grown as described above with a small sprayer such that the amounts of the active ingredients were the amounts shown in Table 4. […]
(§5) After the treatment, they were raised in a greenhouse for 25 days and the effect against weeds was evaluated. In addition, after 14 days of the treatment, the phytotoxicity to soybean was evaluated.

[2] = tested on: soybean; assay: Phytotoxicity to soybean sown immediately after treatment (Test Example 1); assay type: in vivo; conditions: evaluated after 14 days
Protocol: as §1, §2, §3, §4, §5

CCOC(=O)c1ccccc1S(=O)(=O)NC(=O)Nc1nc(Cl)cc(OC)n1 [Chlorimuron-ethyl, ethyl 2-(4-chloro-6-methoxypyrimidin-2-ylcarbamoylsulfamoyl)benzoate]
Herbicide Effect yellow nutsedge ([1]; 5 g/ha active ingredient): 1
Herbicide Effect yellow nutsedge ([1]; 20 g/ha active ingredient): 2
Phytotoxicity soybean ([2]; 5 g/ha active ingredient): no
Phytotoxicity soybean ([2]; 20 g/ha active ingredient): no

Reference: patent publication US7485601B2, “Herbicide composition” (Sumitomo Chemical Company, Limited, priority 2001, dated 2009)
